Molecules are shown by their SMILES.

Data set [1] deals with GRPR (Homo sapiens, UniProt P30550). The data set can be described thus: Competitive binding assay, displacement of 125I-[Tyr4]BBN on PC-3 cells. (Displacement assays read how much labelled ligand stays bound in the presence of the test substance.)
For data set [2] the following is noted: LC-MS, previous study of the authors; cited from earlier work.

Sequence of GRPR (P30550 whole entry): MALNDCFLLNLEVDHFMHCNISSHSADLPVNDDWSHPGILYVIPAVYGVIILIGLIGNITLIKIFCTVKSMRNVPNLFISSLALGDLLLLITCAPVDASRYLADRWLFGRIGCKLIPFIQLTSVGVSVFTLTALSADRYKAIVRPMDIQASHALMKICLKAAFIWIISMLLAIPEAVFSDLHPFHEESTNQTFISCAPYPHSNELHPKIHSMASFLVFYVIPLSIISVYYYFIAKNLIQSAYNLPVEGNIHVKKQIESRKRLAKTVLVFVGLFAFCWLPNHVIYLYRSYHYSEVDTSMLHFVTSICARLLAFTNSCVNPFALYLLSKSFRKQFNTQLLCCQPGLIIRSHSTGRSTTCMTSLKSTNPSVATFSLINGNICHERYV

Regarding `CSCC[C@H](NC(=O)[C@H](CC(C)C)NC(=O)[C@H](Cc1c[nH]cn1)NC(=O)CNC(=O)[C@@H](NC(=O)[C@H](C)NC(=O)[C@H](Cc1c[nH]c2ccccc12)NC(=O)[C@H](CCC(N)=O)NC(=O)CCCCCNC(=O)CN1CCN(CC(=O)O)CCN(CC(=O)O)CC1)C(C)C)C(N)=O` [NOTA–Aca–BBN7–14], in data set [1], the IC50 (as a rule, the concentration that gives 50% inhibition) was 1.8 ± 0.67 nM. As to `CSCC[C@H](NC(=O)[C@H](CC(C)C)NC(=O)[C@H](Cc1cnc[nH]1)NC(=O)CNC(=O)[C@@H](NC(=O)[C@H](C)NC(=O)[C@H](Cc1c[nH]c2ccccc12)NC(=O)[C@@H](N)CCC(N)=O)C(C)C)C(N)=O` [BBN7–14], the “t1/2 of degradation during incubation in rat hepatocytes” value in data set [2] is listed as 4 min.
